# Source: paper PMC5218480 (PLoS ONE, 2017)
# Tested on: MV-4-11 cells
# Assay: Gene expression microarray analysis (Affymetrix PrimeView) and GSEA
# Format: cell-based, human
# Parameters: RFU PODN (11730768_x_at) / Fold change /veh PODN (11730768_x_at) / RFU LINC00158 (11744669_a_at) / Fold change /veh LINC00158 (11744669_a_at) / RFU DUSP10 (11751237_a_at) / Fold change /veh DUSP10 (11751237_a_at) / RFU ID3 (11757404_x_at) / Fold change /veh ID3 (11757404_x_at) / RFU PLEKHG5 (11737974_s_at) / Fold change /veh PLEKHG5 (11737974_s_at) / RFU LRRC4B (11730491_at) / Fold change /veh LRRC4B (11730491_at) / RFU GIMAP4 (11747438_a_at) / Fold change /veh GIMAP4 (11747438_a_at) / RFU KRT8 (11758183_x_at) / Fold change /veh KRT8 (11758183_x_at) / RFU CNN1 (11734310_a_at) / Fold change /veh CNN1 (11734310_a_at) / RFU VPS37D (11726825_at) / Fold change /veh VPS37D (11726825_at) / RFU C10orf10 (11716522_x_at) / Fold change /veh C10orf10 (11716522_x_at) / RFU KIR2DL2 /// KIR2DL4 /// KIR2DL5A /// KIR2DL5B /// KIR2DS1 /// KIR2DS2 /// KIR2DS3 /// KIR2DS4 /// KIR3DL3 /// KIR3DL3 /// KIR3DS1 (11738374_at) / Fold change /veh KIR2DL2 /// KIR2DL4 /// KIR2DL5A /// KIR2DL5B /// KIR2DS1 /// KIR2DS2 /// KIR2DS3 /// KIR2DS4 /// KIR3DL3 /// KIR3DL3 /// KIR3DS1 (11738374_at) / RFU C1QL1 (11718748_at) / Fold change /veh C1QL1 (11718748_at) / RFU TMPRSS4 (11747572_a_at) / Fold change /veh TMPRSS4 (11747572_a_at) / RFU HAMP (11756126_x_at) / Fold change /veh HAMP (11756126_x_at) / RFU RNFT2 (11725882_a_at) / Fold change /veh RNFT2 (11725882_a_at) / RFU NR4A2 (11747474_a_at) / Fold change /veh NR4A2 (11747474_a_at) / RFU ABCC12 (11746883_a_at) / Fold change /veh ABCC12 (11746883_a_at) / RFU TMEM136 (11760407_x_at) / Fold change /veh TMEM136 (11760407_x_at) / RFU CLDN22 /// WWC2 (11732394_at) / Fold change /veh CLDN22 /// WWC2 (11732394_at) / RFU HLA-DPB1 (11760878_x_at) / Fold change /veh HLA-DPB1 (11760878_x_at) / RFU SPINT1 (11716480_a_at) / Fold change /veh SPINT1 (11716480_a_at) / RFU GAP43 (11754022_s_at) / Fold change /veh GAP43 (11754022_s_at) / RFU A4GNT (11735810_at) / Fold change /veh A4GNT (11735810_at) / RFU PRB3 (11715151_x_at) / Fold change /veh PRB3 (11715151_x_at) / RFU TUBB4B (11761932_at) / Fold change /veh TUBB4B (11761932_at) / RFU CAPN14 (11732068_a_at) / Fold change /veh CAPN14 (11732068_a_at) / RFU TMCC2 (11721928_a_at) / Fold change /veh TMCC2 (11721928_a_at) / RFU IRGQ (11745062_a_at) / Fold change /veh IRGQ (11745062_a_at) / RFU FAM174B (11720279_a_at) / Fold change /veh FAM174B (11720279_a_at) / RFU TMPRSS4 (11748680_a_at) / Fold change /veh TMPRSS4 (11748680_a_at) / RFU FAM212B (11763350_a_at) / Fold change /veh FAM212B (11763350_a_at) / RFU PLEKHG5 (11743358_a_at) / Fold change /veh PLEKHG5 (11743358_a_at) / RFU ZSCAN30 (11745921_a_at) / Fold change /veh ZSCAN30 (11745921_a_at) / RFU CMKLR1 (11741424_a_at) / Fold change /veh CMKLR1 (11741424_a_at) / RFU LOC101060620 /// MAPK8IP1 (11723275_at) / Fold change /veh LOC101060620 /// MAPK8IP1 (11723275_at) / RFU SPTSSB (11747773_x_at) / Fold change /veh SPTSSB (11747773_x_at) / RFU PRSS12 (11739890_at) / Fold change /veh PRSS12 (11739890_at) / RFU BIN1 (11741810_x_at) / Fold change /veh BIN1 (11741810_x_at) / RFU WNT11 (11732464_a_at) / Fold change /veh WNT11 (11732464_a_at) / RFU C10orf10 (11716521_a_at) / Fold change /veh C10orf10 (11716521_a_at) / RFU C5orf56 (11738089_at) / Fold change /veh C5orf56 (11738089_at) / RFU CYB561 (11721691_x_at) / Fold change /veh CYB561 (11721691_x_at) / RFU ANKRD19P (11752326_a_at) / Fold change /veh ANKRD19P (11752326_a_at) / RFU OR2T12 /// OR2T33 /// OR2T8 (11738714_s_at) / Fold change /veh OR2T12 /// OR2T33 /// OR2T8 (11738714_s_at) / RFU VCAN (11748164_a_at) / Fold change /veh VCAN (11748164_a_at) / RFU JSRP1 (11732532_at) / Fold change /veh JSRP1 (11732532_at) / RFU KRTAP10-11 (11738290_x_at) / Fold change /veh KRTAP10-11 (11738290_x_at) / RFU MYO3A (11730013_a_at) / Fold change /veh MYO3A (11730013_a_at) / RFU EBF3 (11725865_a_at) / Fold change /veh EBF3 (11725865_a_at) / RFU CAMK2N1 (11719241_x_at) / Fold change /veh CAMK2N1 (11719241_x_at) / RFU C5orf56 (11738088_a_at) / Fold change /veh C5orf56 (11738088_a_at) / RFU OLFML3 (11715873_a_at) / Fold change /veh OLFML3 (11715873_a_at) / RFU LOC100653217 /// NTM (11731650_a_at) / Fold change /veh LOC100653217 /// NTM (11731650_a_at) / RFU MAPK11 (11762145_a_at) / Fold change /veh MAPK11 (11762145_a_at) / RFU FIZ1 (11724087_x_at) / Fold change /veh FIZ1 (11724087_x_at) / RFU OASL (11726364_x_at) / Fold change /veh OASL (11726364_x_at) / RFU SOX15 (11748057_x_at) / Fold change /veh SOX15 (11748057_x_at) / RFU CD79A (11719716_a_at) / Fold change /veh CD79A (11719716_a_at) / RFU HIST1H1D (11736915_at) / Fold change /veh HIST1H1D (11736915_at) / RFU CASKIN2 (11723855_a_at) / Fold change /veh CASKIN2 (11723855_a_at) / RFU LOC730098 (11760151_x_at) / Fold change /veh LOC730098 (11760151_x_at) / RFU OR4N2 (11742367_at) / Fold change /veh OR4N2 (11742367_at) / RFU PRRT2 (11749266_a_at) / Fold change /veh PRRT2 (11749266_a_at) / RFU SNX32 (11753110_a_at) / Fold change /veh SNX32 (11753110_a_at) / RFU CDHR5 (11726645_a_at) / Fold change /veh CDHR5 (11726645_a_at) / RFU RCAN1 (11760418_a_at) / Fold change /veh RCAN1 (11760418_a_at) / RFU FAM167A (11723789_a_at) / Fold change /veh FAM167A (11723789_a_at) / RFU FAM26E (11764081_at) / Fold change /veh FAM26E (11764081_at) / RFU ISYNA1 (11749810_s_at) / Fold change /veh ISYNA1 (11749810_s_at) / RFU ACY1 (11761880_at) / Fold change /veh ACY1 (11761880_at) / RFU 11764098_at / Fold change /veh 11764098_at / RFU SAMD14 (11745864_x_at) / Fold change /veh SAMD14 (11745864_x_at) / RFU NPB (11741838_a_at) / Fold change /veh NPB (11741838_a_at) / RFU TMPRSS6 (11731388_a_at) / Fold change /veh TMPRSS6 (11731388_a_at) / RFU KRTAP10-2 (11738614_at) / Fold change /veh KRTAP10-2 (11738614_at) / RFU ARHGAP8 /// PRR5-ARHGAP8 (11727945_x_at) / Fold change /veh ARHGAP8 /// PRR5-ARHGAP8 (11727945_x_at) / RFU KRTAP5-7 /// NADSYN1 (11734609_at) / Fold change /veh KRTAP5-7 /// NADSYN1 (11734609_at) / RFU RASL12 (11751679_a_at) / Fold change /veh RASL12 (11751679_a_at) / RFU CDKN2B (11736163_a_at) / Fold change /veh CDKN2B (11736163_a_at) / RFU PRF1 (11729649_at) / Fold change /veh PRF1 (11729649_at) / RFU, ZNF638 /// ZNF638-IT1 / Fold change vs veh, ZNF638 /// ZNF638-IT1 / RFU, PANK3 / Fold change vs veh, PANK3 / RFU, SH3YL1 / Fold change vs veh, SH3YL1 / RFU, ZEB2 / Fold change vs veh, ZEB2 / RFU, NRIP1 / Fold change vs veh, NRIP1 / RFU, PTTG1IP / Fold change vs veh, PTTG1IP / RFU, CAPN2 / Fold change vs veh, CAPN2 / RFU, MED14 / Fold change vs veh, MED14 / RFU, SNORA58 / Fold change vs veh, SNORA58 / RFU, C1orf63 / Fold change vs veh, C1orf63 / RFU, LRRFIP1 / Fold change vs veh, LRRFIP1 / RFU, NDUFAF7 / Fold change vs veh, NDUFAF7 / RFU, SLC12A2 / Fold change vs veh, SLC12A2 / RFU, IBTK / Fold change vs veh, IBTK / RFU, ESF1 / Fold change vs veh, ESF1 / Fold change vs veh, TMEM50B / RFU, TAOK1 / Fold change vs veh, TAOK1 / RFU, ACBD3 / Fold change vs veh, ACBD3 / RFU, TMA16 / Fold change vs veh, TMA16 / RFU, RWDD3 / Fold change vs veh, RWDD3 / RFU, BCAT1 / Fold change vs veh, BCAT1 / RFU, EDEM3 / Fold change vs veh, EDEM3 / RFU, TMEM33 / Fold change vs veh, TMEM33 / RFU, WDR75 / Fold change vs veh, WDR75 / RFU, AHCTF1 / Fold change vs veh, AHCTF1 / RFU, TFRC / Fold change vs veh, TFRC / RFU, ZDHHC17 / Fold change vs veh, ZDHHC17 / RFU, NOM1 / Fold change vs veh, NOM1 / RFU, ARL8B / Fold change vs veh, ARL8B / RFU, ZBTB11 / Fold change vs veh, ZBTB11 / RFU, TAMM41 / Fold change vs veh, TAMM41 / RFU, KIAA1704 /// LOC100996395 / Fold change vs veh, KIAA1704 /// LOC100996395 / RFU, ING1 / Fold change vs veh, ING1 / RFU, TRMT61B / Fold change vs veh, TRMT61B / RFU, FUBP3 / Fold change vs veh, FUBP3 / RFU, TP53 / Fold change vs veh, TP53 / RFU, TNKS2 / Fold change vs veh, TNKS2 / RFU, ZFP14 / Fold change vs veh, ZFP14 / RFU, ACTR2 / Fold change vs veh, ACTR2 / RFU, PPP3R1 / Fold change vs veh, PPP3R1 / RFU, PIK3R1 / Fold change vs veh, PIK3R1 / RFU, HNRNPA1 / Fold change vs veh, HNRNPA1 / RFU, RNF170 / Fold change vs veh, RNF170 / RFU, ZNF28 / Fold change vs veh, ZNF28 / RFU, RNGTT / Fold change vs veh, RNGTT / RFU, OGT / Fold change vs veh, OGT / RFU, BRD1 / Fold change vs veh, BRD1 / RFU, MARS / Fold change vs veh, MARS / RFU, ZNF655 / Fold change vs veh, ZNF655 / RFU, FAHD1 / Fold change vs veh, FAHD1 / RFU, BDP1 / Fold change vs veh, BDP1 / RFU, LRRCC1 / Fold change vs veh, LRRCC1 / RFU, ARID1A / Fold change vs veh, ARID1A / RFU, ZNF146 / Fold change vs veh, ZNF146 / RFU, ZNF330 / Fold change vs veh, ZNF330 / RFU, GPN3 / Fold change vs veh, GPN3 / RFU, C9orf123 / Fold change vs veh, C9orf123 / RFU, N4BP2L2 / Fold change vs veh, N4BP2L2 / RFU, ARFIP1 / Fold change vs veh, ARFIP1 / RFU, FAM179B / Fold change vs veh, FAM179B / RFU, BCL10 / Fold change vs veh, BCL10 / RFU, UHRF1BP1L / Fold change vs veh, UHRF1BP1L / RFU, BET1 / Fold change vs veh, BET1 / RFU, CNOT2 / Fold change vs veh, CNOT2 / RFU, ZNF268 / Fold change vs veh, ZNF268 / Fold change vs veh, ZNF507 / RFU, DGCR2 / Fold change vs veh, DGCR2 / RFU, WDSUB1 / Fold change vs veh, WDSUB1 / Fold change vs veh, HSP90B1 /// MIR3652 / RFU, ADSS / Fold change vs veh, ADSS / RFU, GK / Fold change vs veh, GK / RFU, ZNF148 / Fold change vs veh, ZNF148 / RFU, TAF9 / Fold change vs veh, TAF9 / RFU, SLC1A5 / Fold change vs veh, SLC1A5 / RFU, SLMO2 / Fold change vs veh, SLMO2 / RFU, ABCC4 / Fold change vs veh, ABCC4 / RFU, LOC101060439 /// RAP1B / Fold change vs veh, LOC101060439 /// RAP1B / RFU, RFX7 / Fold change vs veh, RFX7 / RFU, GTPBP10 / Fold change vs veh, GTPBP10 / RFU, CNEP1R1 / Fold change vs veh, CNEP1R1 / RFU, BIVM-ERCC5 /// ERCC5 / Fold change vs veh, BIVM-ERCC5 /// ERCC5 / RFU, ILF3 / Fold change vs veh, ILF3 / RFU 11762660_at / Fold change /veh 11762660_at / RFU VCAN (11757783_s_at) / Fold change /veh VCAN (11757783_s_at) / RFU DDX43 (11728927_at) / Fold change /veh DDX43 (11728927_at) / RFU KRT8 (11758188_x_at) / Fold change /veh KRT8 (11758188_x_at) / RFU NKD1 (11759106_at) / Fold change /veh NKD1 (11759106_at) / RFU SRD5A1 (11742802_a_at) / Fold change /veh SRD5A1 (11742802_a_at) / RFU TPSAB1 /// TPSB2 (11721975_s_at) / Fold change /veh TPSAB1 /// TPSB2 (11721975_s_at) / RFU GSTM3 (11746129_a_at) / Fold change /veh GSTM3 (11746129_a_at) / RFU IL23R (11737362_x_at) / Fold change /veh IL23R (11737362_x_at) / RFU TMEM51 (11727254_a_at) / Fold change /veh TMEM51 (11727254_a_at) / RFU PIWIL2 (11732686_x_at) / Fold change /veh PIWIL2 (11732686_x_at) / RFU ORM1 (11744905_x_at) / Fold change /veh ORM1 (11744905_x_at) / RFU CCDC152 (11743942_at) / Fold change /veh CCDC152 (11743942_at) / RFU ECM1 (11717891_a_at) / Fold change /veh ECM1 (11717891_a_at) / RFU IL23R (11748794_a_at) / Fold change /veh IL23R (11748794_a_at) / RFU TNFAIP8L3 (11732012_x_at) / Fold change /veh TNFAIP8L3 (11732012_x_at) / RFU MBOAT4 (11741988_at) / Fold change /veh MBOAT4 (11741988_at) / RFU 11764193_at / Fold change /veh 11764193_at / RFU TMEM53 (11763286_at) / Fold change /veh TMEM53 (11763286_at) / RFU MAGEB2 (11727129_at) / Fold change /veh MAGEB2 (11727129_at) / RFU TMEM200A (11744735_a_at) / Fold change /veh TMEM200A (11744735_a_at) / RFU CCDC152 (11751479_a_at) / Fold change /veh CCDC152 (11751479_a_at) / RFU FAM211A (11726209_a_at) / Fold change /veh FAM211A (11726209_a_at) / RFU RGS16 (11746705_a_at) / Fold change /veh RGS16 (11746705_a_at) / RFU VCAN (11755009_s_at) / Fold change /veh VCAN (11755009_s_at) / RFU RHOB (11743442_s_at) / Fold change /veh RHOB (11743442_s_at) / RFU RGS16 (11720943_a_at) / Fold change /veh RGS16 (11720943_a_at) / RFU RGS16 (11720944_at) / Fold change /veh RGS16 (11720944_at) / RFU, VPS4B / Fold change vs veh, VPS4B / RFU, CREB1 / Fold change vs veh, CREB1 / RFU, DNAJC13 / Fold change vs veh, DNAJC13 / RFU, GNAQ / Fold change vs veh, GNAQ / RFU, CDK5R1 / Fold change vs veh, CDK5R1 / RFU, ZRANB3 / Fold change vs veh, ZRANB3 / RFU, CUL4A / Fold change vs veh, CUL4A / RFU, CCNY / Fold change vs veh, CCNY / RFU, UFL1 / Fold change vs veh, UFL1 / RFU, COG3 / Fold change vs veh, COG3 / RFU, DIAPH2 / Fold change vs veh, DIAPH2 / RFU, SKA2 / Fold change vs veh, SKA2 / RFU, AFF3 / Fold change vs veh, AFF3 / RFU, LMF1 / Fold change vs veh, LMF1 / RFU, IPO11 / Fold change vs veh, IPO11 / RFU, DFFB / Fold change vs veh, DFFB / RFU, FOXP1 / Fold change vs veh, FOXP1 / RFU, CARD8 / Fold change vs veh, CARD8 / RFU, STRN3 / Fold change vs veh, STRN3 / RFU, ADK / Fold change vs veh, ADK / RFU, RASSF2 / Fold change vs veh, RASSF2 / RFU, WIPF1 / Fold change vs veh, WIPF1 / RFU, LARP1B / Fold change vs veh, LARP1B / RFU, RASA1 / Fold change vs veh, RASA1 / RFU, RB1 / Fold change vs veh, RB1 / RFU, PPFIA1 / Fold change vs veh, PPFIA1 / RFU, MAT2A / Fold change vs veh, MAT2A / RFU, CCT5 / Fold change vs veh, CCT5 / RFU, WDR92 / Fold change vs veh, WDR92 / RFU, CUX1 / Fold change vs veh, CUX1 / RFU, TTC7A / Fold change vs veh, TTC7A / RFU, TMEM135 / Fold change vs veh, TMEM135 / RFU, DEPTOR / Fold change vs veh, DEPTOR / RFU, CPM / Fold change vs veh, CPM / RFU, DNAJB6 / Fold change vs veh, DNAJB6 / RFU, CACNA2D3 / Fold change vs veh, CACNA2D3 / RFU, DTX4 / Fold change vs veh, DTX4 / RFU, TFCP2 / Fold change vs veh, TFCP2 / RFU, GMCL1 /// GMCL1P1 / Fold change vs veh, GMCL1 /// GMCL1P1 / RFU, AEBP2 / Fold change vs veh, AEBP2 / RFU, SNHG1 /// SNORD22 /// SNORD25 /// SNORD26 /// SNORD27 /// SNORD28 /// SNORD29 /// SNORD31 / Fold change vs veh, SNHG1 /// SNORD22 /// SNORD25 /// SNORD26 /// SNORD27 /// SNORD28 /// SNORD29 /// SNORD31 / Fold change (Aza/veh), C12orf56 (ProbeSet 11735607_a_at) / Fold change (ACY-1035/veh), C12orf56 (ProbeSet 11735607_a_at) / Fold change (Aza/veh), FGFR1OP (ProbeSet 11751329_s_at) / Fold change (ACY-1035/veh), FGFR1OP (ProbeSet 11751329_s_at) / Fold change (Aza/veh), VPS36 (ProbeSet 11739960_a_at) / Fold change (ACY-1035/veh), VPS36 (ProbeSet 11739960_a_at) / RFU SYPL1 (11715823_x_at) / Fold change /veh SYPL1 (11715823_x_at) / RFU IGFBP7 (11715501_s_at) / Fold change /veh IGFBP7 (11715501_s_at) / RFU REEP3 (11722064_at) / Fold change /veh REEP3 (11722064_at) / RFU IGLL1 (11728026_x_at) / Fold change /veh IGLL1 (11728026_x_at): dose or concentration left out as unconfirmed
# Details: MV-4-11 cells, 48 hours
smiles,measurement,value
Nc1ncn([C@@H]2O[C@H](CO)[C@@H](O)[C@H]2O)c(=O)n1 [azacitidine],Fold change /veh IGLL1 (11728026_x_at),0.66
